Results on 7 molecules are retold here after patent publication US20090163452A1, “COMPOSITIONS AND METHODS FOR LOWERING SERUM CHOLESTEROL” (priority 2007, published 2009).

Data set [1] in a line: Serum vitamin D metabolite concentrations (LCMSMS) in patients on atorvastatin, crossover with/without supplemental vitamin D. It counts as in vivo, human. As to conditions: vitamin D supplementation 800 IU/day for six weeks (On-D), mean ± S.D. The procedure:
Study protocol. A prospective crossover study was performed. […] If subjects were taking vitamin D supplementation at recruitment, assigned study order was “On-D” after six week of standardized study dispensed vitamins followed by the “Off-D” study after six weeks of vitamin D discontinuation. […] All other prescribed medications were continued unchanged throughout the study.

The test system of data set [2] is cholesterol (total, LDL-cholesterol). The data set can be described thus: Example 3: 1000 IU/day vitamin D for 12 weeks in humans not receiving atorvastatin, cholesterol. The format is in vivo, human. As to conditions: one middle-aged subject. The procedure:
A study is performed with 1000 IU/day of either vitamin D2 or vitamin D3 or identically packaged placebo for a period of 12 weeks. Cholesterol (total, LDL-cholesterol, HDL-cholesterol) and triglycerides are evaluated before and during supplemental vitamin D or placebo. Focus is on adult humans with or without known lipid disorders that are not receiving atorvastatin.

In data set [3] the test system is cholesterol (total, LDL-cholesterol, and HDL-cholesterol). The data set can be described thus: Serum cholesterol concentrations (enzymatic assay) in patients on atorvastatin with and without supplemental vitamin D. As to conditions: for Cholesterol Total: serum; for Cholesterol Total / LDL-cholesterol / HDL-cholesterol: mean ± S.D.; for LDL-cholesterol: calculated LDL. It counts as in vivo, human. The method, then:
Study protocol. A prospective crossover study was performed. […] Columbus Ohio 43216). All other prescribed medications were continued unchanged throughout the study. […] Lipid concentration data. Serum samples were analyzed for cholesterol, LDL-cholesterol (calculated) and HDL-cholesterol concentrations by enzymatic assay (Quest Diagnostics, San Jose, Calif.).

The nature of data set [4]: Plasma atorvastatin and metabolite concentrations/AUC (LC-MS/MS) with and without supplemental vitamin D. The format is in vivo, human. The method, then:
Study protocol. A prospective crossover study was performed. […] Columbus Ohio 43216). All other prescribed medications were continued unchanged throughout the study. […] The sample cone voltage and collision energy for all analytes and internal standard were set at 30 V and 20 eV, respectively. Chromatography was performed on BDS C18 column (50×4.6 mm, 5 μm particle size, Thermo Electron Corporation, Bellefonte, Pa.). […] Twenty-five percent of flow liquid was split into the mass system. […] The organic layer then transferred to another tube and evaporated by N2 gas and reconstituted with 0.2 ml 50% CH3CN containing 0.05% acetic acid and 5 mM ammonium acetate, and 20 μl was injected onto column. Lower limit of detection was 0.313 ng/ml for atorvasatin and metabolites. […] Area under the plasma concentration vs. time curve (AUC) was calculated by trapezoidal rule.

In another data set the test system is CYP3A. As to conditions: in vitro; complex with the vitamin D receptor; CYP3A substrate midazolam; cited from earlier work.
The subject of another data set is circulating cholesterol. The data set can be described thus: Example 2: atorvastatin with 1000 IU/day vitamin D2 or D3 or placebo for 12 weeks, circulating cholesterol. As to conditions: co-administration with atorvastatin. It counts as in vivo, human. The method, then:
The focus is on clinical populations including the elderly, frail, and minorities under steady-state conditions and with conditions reflecting “usual” clinical conditions with use of sparse sampling techniques and minimal impact on clinical care. […] About 90 participants are enrolled, with 30 receiving placebo, 30 receiving vitamin D2, and 30 receiving vitamin D3. Total vitamin D intake is analyzed (primarily driven by dairy food intake and supplements), and patients with major absorptive disorders (intestinal bypass surgery, feeding tubes requiring liquid diets, etc) are excluded. Other factors that could affect vitamin D absorption such as alcohol intake are evaluated.

Setting [5] is: vitamin D supplementation 800 IU/day six weeks (On-D), patients on atorvastatin.
The mark [6] stands for this setting: no vitamin D supplementation (Off-D), atorvastatin.

vitamin D: the “Vitamin D (25-OH) Total 25-hydroxy serum concentration” value in data set [1] (patients on atorvastatin) was found to be 29 ± 14 ng/mL. For the same molecule, the “Vitamin D (active) 1,25-dihydroxy serum concentration” value in data set [1] (patients on atorvastatin) worked out at 38 ± 15 pg/mL. In addition, the “D3, 25-hydroxy serum concentration” value in data set [1] was 20 ± 17 ng/mL. Besides, the total cholesterol in data set [2] (after about 12 weeks of 1000 IU vitamin D (single and combined forms of D2 and D3), 241 before vitamin D) is 201 mg/dL; in data set [2] (after about 12 weeks of 1000 IU vitamin D, 238 before vitamin D) it was 219 mg/dL. The LDL-cholesterol in data set [2] (after about 12 weeks of 1000 IU vitamin D, 125 before vitamin D) is 112 mg/dL; in data set [2] (after about 12 weeks of 1000 IU vitamin D, 144 before vitamin D), 98 mg/dL; in data set [3] (setting [5]), 83 ± 30 mg/dL. Further, the “difference in HDL-cholesterol with vitamin D supplementation” value in data set [3] (On-D versus Off-D) is “No difference”. Besides, in data set [3] (On-D versus Off-D, patients on atorvastatin), the “subjects with lower total cholesterol during supplemental vitamin D” value is on record as “thirteen of sixteen”. Besides, the “mean difference in LDL-cholesterol” value in data set [3] (after six weeks of vitamin D supplementation, co-administered with atorvastatin) was found to be 14.4%. Besides, the “Cholesterol Total” value in data set [3] (vitamin D supplementation 800 IU/day six weeks (On-D), patients on atorvastatin 45±33 mg/day) is 157 ± 37 mg/dL. In data set [3] (setting [5]), this molecule showed an HDL-cholesterol of 44 ± 11 mg/dL.
As to `CC(C)c1c(C(=O)Nc2ccc(O)cc2)c(-c2ccccc2)c(-c2ccc(F)cc2)n1CC[C@@H](O)C[C@@H](O)CC(=O)O` [4-hydroxy-atorvastatin acid, 4-hydroxyatorvastatin acid], the “AUC/concentrations during vitamin D co-administration compared to the off-D study period” value in data set [4] (comparison between study periods) is given as “significantly lower”. The “ratio of hydroxy-atorvastatin acid to atorvastatin” value is 0.09±0.09 in data set [4] (during supplemental vitamin D) and 0.10±0.09 in data set [4] (off-D).
Take `C=C1/C(=C\C=C2/CCC[C@]3(C)[C@@H]([C@H](C)CCCC(C)(C)O)CC[C@@H]23)C[C@@H](O)C[C@@H]1O` [1,25-(OH)2 vitamin D]: the “regulation of CYP3A activity” value in the data set on CYP3A was “increased transcription of CYP3A protein and greater metabolism of the CYP3A substrate midazolam”.
For the molecule `C=C1CC[C@H](O)C/C1=C/C=C1\CCC[C@]2(C)[C@@H]([C@H](C)/C=C/[C@H](C)C(C)C)CC[C@@H]12` [vitamin D2, ergocalciferol], the “circulating cholesterol compared with atorvastatin and placebo” value in the data set with circulating cholesterol is on record as “additional reduction”.
As to `CC(C)c1c(C(=O)Nc2ccccc2)c(-c2ccccc2)c(-c2ccc(F)cc2)n1CC[C@@H](O)C[C@@H](O)CC(=O)O` [atorvastatin], the “Cholesterol Total” value stood at 169 ± 35 mg/dL in data set [3] (no vitamin D supplementation (Off-D), atorvastatin 45±33 mg/day) and 169 ± 35 mg/dL in data set [3] (no vitamin D supplementation (Off-D), atorvastatin 45±33 mg/day, listed as Atorvastatin). Besides, the LDL-cholesterol in data set [3] (setting [6]) was 97 ± 28 mg/dL; in data set [3] (no vitamin D supplementation (Off-D), atorvastatin, listed as Atorvastatin), 97 ± 28 mg/dL. In data set [3] (setting [6]), this molecule gave an HDL-cholesterol of 47 ± 11 mg/dL.
Regarding `CC(C)c1c(C(=O)Nc2ccccc2O)c(-c2ccccc2)c(-c2ccc(F)cc2)n1CCC(O)CC(O)CC(=O)O` (centres unmarked) [2-OH, 2-hydroxyatorvastatin acid], the results for the “ratio of hydroxy-atorvastatin acid to atorvastatin” value in data set [4] (during supplemental vitamin D) and in data set [4] (off-D) were 0.74±0.36 and 0.81±0.32, respectively.
As for `C=C1CC[C@H](O)C/C1=C/C=C1\CCC[C@]2(C)[C@@H]([C@H](C)CCCC(C)C)CC[C@@H]12` [D3, cholecalciferol], the “circulating cholesterol compared with atorvastatin and placebo” value in the data set on circulating cholesterol is on record as “additional reduction”.
